How the values were obtained:
[1] = biological target: T1, Gilliamella bombicola lactate dehydrogenase GbLDH, SEQ ID NO: 73, N-terminal 6xHis/HRV 3C tag (SEQ ID NO: 250) (Gilliamella bombicola, UniProt A0A1C4CJ33); assay: Apparent steady-state kinetics of L-lactate oxidation with DCIP as electron acceptor; assay type: biochemical; details: L-lactate 0.125 to 64 mM, DCIP 120 μM, 11 mM PBS pH 7.4, 30° C.
T1 sequence (A0A1C4CJ33 1-365): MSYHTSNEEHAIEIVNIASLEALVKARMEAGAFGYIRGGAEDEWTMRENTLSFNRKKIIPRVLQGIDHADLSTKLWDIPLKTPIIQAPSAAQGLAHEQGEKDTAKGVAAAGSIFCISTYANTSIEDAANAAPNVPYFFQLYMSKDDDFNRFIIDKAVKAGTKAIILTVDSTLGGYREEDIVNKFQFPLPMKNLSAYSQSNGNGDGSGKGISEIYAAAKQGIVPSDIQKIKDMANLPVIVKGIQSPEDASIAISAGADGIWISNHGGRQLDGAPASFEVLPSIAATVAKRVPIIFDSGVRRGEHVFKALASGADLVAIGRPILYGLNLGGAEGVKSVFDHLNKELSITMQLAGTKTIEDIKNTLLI

[2] = biological target: T2, Lactobacillus johnsonii lactate dehydrogenase LjLDH, SEQ ID NO: 59, N-terminal 6xHis/HRV 3C tag (SEQ ID NO: 250) (Lactobacillus johnsonii, UniProt A0A7D9N8I3); assay: as above; assay type: biochemical; details: L-lactate 0.125 to 64 mM, DCIP 120 μM, 11 mM PBS pH 7.4, 30° C.
T2 sequence (A0A7D9N8I3 1-412): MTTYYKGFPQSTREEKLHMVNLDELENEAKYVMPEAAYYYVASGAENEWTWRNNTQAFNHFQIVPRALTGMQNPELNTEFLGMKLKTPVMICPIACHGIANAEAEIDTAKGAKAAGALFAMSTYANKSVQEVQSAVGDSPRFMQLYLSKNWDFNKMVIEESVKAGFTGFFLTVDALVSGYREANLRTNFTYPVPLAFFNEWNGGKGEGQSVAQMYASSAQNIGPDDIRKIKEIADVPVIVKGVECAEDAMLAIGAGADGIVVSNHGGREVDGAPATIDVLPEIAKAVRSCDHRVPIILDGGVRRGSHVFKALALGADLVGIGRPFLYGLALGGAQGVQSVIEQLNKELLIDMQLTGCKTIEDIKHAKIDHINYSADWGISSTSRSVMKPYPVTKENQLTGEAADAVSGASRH

[3] = biological target: T3, Pediococcus acidilactici lactate dehydrogenase PaLDH (PaLCTO), native form, SEQ ID NO: 2 (Pediococcus acidilactici, UniProt E0NE46); details: apparent; L-lactate 4 to 500 mM; DCIP 120 μM; 11 mM PBS pH 7.4, 30° C.; per monomeric mass
T3 sequence (E0NE46 1-369): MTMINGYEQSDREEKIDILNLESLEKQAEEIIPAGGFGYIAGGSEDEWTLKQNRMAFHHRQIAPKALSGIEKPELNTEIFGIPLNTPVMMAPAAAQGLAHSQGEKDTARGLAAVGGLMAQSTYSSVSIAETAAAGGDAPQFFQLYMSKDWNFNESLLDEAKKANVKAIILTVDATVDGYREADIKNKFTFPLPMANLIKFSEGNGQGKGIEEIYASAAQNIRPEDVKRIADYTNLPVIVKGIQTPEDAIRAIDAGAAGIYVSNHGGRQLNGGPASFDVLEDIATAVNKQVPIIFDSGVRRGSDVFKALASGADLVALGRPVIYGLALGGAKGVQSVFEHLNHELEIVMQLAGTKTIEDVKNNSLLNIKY

[4] = biological target: T4, Lactobacillus helsingborgensis lactate dehydrogenase LhLDH, SEQ ID NO: 13, N-terminal 6xHis/HRV 3C tag (SEQ ID NO: 250) (Lactobacillus helsingborgensis, UniProt A0A0F4LW09); assay: Apparent steady-state kinetics of L-lactate oxidation with DCIP as electron acceptor; assay type: biochemical; details: L-lactate 0.125 to 64 mM, DCIP 120 μM, 11 mM PBS pH 7.4, 30° C.
T4 sequence (A0A0F4LW09 1-409): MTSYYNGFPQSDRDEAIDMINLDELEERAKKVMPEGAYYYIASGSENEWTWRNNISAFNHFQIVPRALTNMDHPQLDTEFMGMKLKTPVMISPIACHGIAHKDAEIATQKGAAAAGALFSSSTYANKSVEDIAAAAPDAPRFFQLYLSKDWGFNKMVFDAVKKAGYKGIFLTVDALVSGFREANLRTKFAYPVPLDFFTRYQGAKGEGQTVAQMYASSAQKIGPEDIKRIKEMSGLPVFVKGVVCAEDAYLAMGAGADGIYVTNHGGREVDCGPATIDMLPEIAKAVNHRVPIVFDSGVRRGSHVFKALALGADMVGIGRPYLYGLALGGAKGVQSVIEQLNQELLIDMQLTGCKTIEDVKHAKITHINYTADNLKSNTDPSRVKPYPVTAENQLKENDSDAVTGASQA

[5] = tested on: Shigella sp. FC1655 lactate dehydrogenase SsLDH, SEQ ID NO: 74, predicted signal peptide removed, N-terminal 6xHis/HRV 3C tag (SEQ ID NO: 250); details: apparent, L-lactate 0.125 to 64 mM, DCIP 120 μM, 11 mM PBS pH 7.4, 30° C.
C[C@H](O)C(=O)O = assay: purified protein, by the assay type; details: other: apparent, L-lactate 0.125 to 64 mM, DCIP 120 μM, 11 mM PBS pH 7.4, 30° C.

Compound	Km [1]	kcat ([1]; per monomeric mass)	Km [2]	kcat ([2]; per monomeric mass)	kcat [3]	Km [4]	kcat ([4]; per monomeric mass)	Km [5]	kcat ([5]; per monomeric mass)	Km (C[C@H](O)C(=O)O)	kcat (C[C@H](O)C(=O)O)	kcat/Km (C[C@H](O)C(=O)O)
C[C@H](O)C(=O)O [L-lactate]	16.9 ± 2.5 mM	207 ± 29 s⁻¹	1.35 ± 0.18 mM	47.2 ± 2.0 s⁻¹	61.8 ± 8.5 s⁻¹	0.52 ± 0.09 mM	102 ± 8 s⁻¹	5.67 ± 1.24 mM	107 ± 10 s⁻¹	–	–	–
Enterococcus avium lactate dehydrogenase EaLDH, SEQ ID NO: 155, N-terminal 6xHis/HRV 3C tag (SEQ ID NO: 250) (Enterococcus avium ATCC 14025)	–	–	–	–	–	–	–	–	–	21.6 ± 2.2 mM	94 ± 7.8 s⁻¹	4350 M⁻¹ s⁻¹
